In patent US20110301146A1 (ONCOTHERAPY SCIENCE, INC., priority 2008, published 2011):

Biological target: T1, GSK-3beta (Homo sapiens, UniProt P49841)
T1 construct: purchased Invitrogen
Test: Z'-LYTE kinase assay (FRET, SER/THR 9 peptide)
Assay type: biochemical
Settings: 0.04 ng/micro-l GSK-3beta (Invitrogen), 2 micro-M SER/THR 9 peptide, 15 micro-M ATP, 1 hour at room temperature, 1% DMSO
Method: The Z′-LYTE kinase assay kit employs a fluorescence resonance energy transfer (FRET) between two fluorophores, coumarin and fluorescein, attached to each end of a substrate peptide.
For 0% phosphorylation control, ATP was omitted from the reaction mixture. For 100% phosphorylation control, SER/THR 9 phosphopeptide was used in place of the SER/THR 9 peptide. Following 1 hour incubation at room temperature, the reaction was stopped by the addition of half assay volume of development solution and further incubated for 1 hour at room temperature. […] The extent of phosphorylation was determined according to the 0% and 100% phosphorylation control samples using the following equation: […]
IC50 values were calculated by nonlinear four parameter fit using SigmaPlot, version 10.0 (Systat Software, Inc.).

T1 sequence (P49841 whole entry): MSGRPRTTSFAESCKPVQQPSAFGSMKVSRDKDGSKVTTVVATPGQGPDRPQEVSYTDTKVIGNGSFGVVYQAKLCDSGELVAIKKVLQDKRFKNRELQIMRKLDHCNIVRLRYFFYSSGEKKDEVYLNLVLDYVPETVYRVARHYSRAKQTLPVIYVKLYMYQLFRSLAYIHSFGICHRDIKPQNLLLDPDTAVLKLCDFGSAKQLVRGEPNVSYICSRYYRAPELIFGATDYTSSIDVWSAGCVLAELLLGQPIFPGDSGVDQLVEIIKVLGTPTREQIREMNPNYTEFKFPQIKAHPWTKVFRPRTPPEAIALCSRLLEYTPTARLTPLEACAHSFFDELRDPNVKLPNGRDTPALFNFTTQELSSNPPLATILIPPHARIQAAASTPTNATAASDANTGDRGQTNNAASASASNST

IC50 [nM] | Compound
1300 | O=C(NCC1CCCCN1)c1ccc(O)c2[nH]c(C3CCCC3)nc12 (centres unmarked) [Example 14, 2-cyclopentyl-4-hydroxy-N-(piperidin-2-ylmethyl)-1H-benzo[d]imidazole-7-carboxamide]
18 | O=C(NC1CCNCC1)c1ccc(O)c2[nH]c(-c3cccs3)nc12 [Example 40, 7-Hydroxy-N-(piperidin-4-yl)-2-(thiophen-2-yl)-1H-benzo[d]imidazole-4-carboxamide]
